Paper PMC5882164, “A novel calcimimetic agent, evocalcet (MT-4580/KHK7580), suppresses the parathyroid cell function with little effect on the gastrointestinal tract or CYP isozymes in vivo and in vitro” (PLoS ONE, 2018)
Values joined by “and” are separate entries in the source; they are usually repeats but may differ in a detail not shown here. Identical values can stand only once. Counter-ions that a name gives are not always drawn.

Columns and labels:
[1] = test system: serum calcium; experiment: Normal rat study: serum calcium level after oral administration; type: in vivo; set-up: Serum Ca: unit not given here; details: normal rats
Method: (§1) After acclimatization, rats were divided into nine groups (n = 10/group) matched in terms of body weight, and their serum PTH and calcium levels. Vehicle, 0.5% (w/v) methyl cellulose (Wako Pure Chemical Industries, Ltd.) solution orally administered to vehicle treatment group rats. Evocalcet (0.03, 0.1, 0.3, or 1 mg/kg), or cinacalcet (1, 3, 10, or 30 mg/kg) were suspended in the vehicle solution and orally administered to each drug treatment group. Blood samples were collected from the tail vein before and at 0.5, 2, 4, 6, 8, and 24 h after the oral administration.
(§2) The serum PTH level was measured using a Rat Intact PTH ELISA kit (Immutopics, Inc., San Clemente, CA). The serum calcium, phosphate and BUN levels were measured using an auto analyzer (Hitachi High-Technologies Corporation., Tokyo, Japan) or the following test kits: the Calcium E-test WAKO, the Phospha C-test WAKO, or the Blood Urea nitrogen B-test WAKO (Wako Pure Chemical Industries, Ltd., Osaka, Japan).

[2] = test system: serum PTH; experiment: Normal rat study: serum PTH level after oral administration; type: in vivo; details: normal rats
Method: as §1, §2

[3] = test system: gastric emptying; experiment: Evaluation of gastric emptying in rats (phenol red); type: in vivo, rat
Method: The study of gastric emptying in rats was performed by referencing a previously reported method. […] The rats were divided into eight body-weight-matched groups (n = 8/group). […] Ten minutes later, 0.05 w/v% phenol red, a non-absorbable marker solution (1.5 mL/body), was orally administered. Thirty minutes after the administration of phenol red, the rats were euthanized by cervical dislocation, and the gastric body clamped at the cardiac and pyloric part of the stomach was obtained. The stomach was homogenized by adding 0.1 M NaOH and centrifugated. The supernatant was mixed with 20 w/v% trichloroacetic acid. After centrifugation, the supernatant was mixed with the same volume of 0.5 mol/L NaOH, and the absorbance was measured at 560 nm. The gastric emptying rate was calculated by the following formula: […]=[1-(opticaldensity[[…])]×100

[4] = test system: serum PTH; experiment: Serum PTH reduction in common marmosets; type: in vivo, common marmoset; set-up: Serum PTH levels: unit not given here
Method: The study of effect of evocalcet on emesis in common marmoset was performed by referencing a previously reported method. The marmosets (n = 24) used for this study were housed in cages (460 × 600 × 655 mm) with environmental enrichments (wooden perches, swing, and balls) and acclimated for at least 4 weeks. The marmosets were fasted from evening on the day before administration. […] The serum PTH level was measured using a Porcine Intact PTH ELISA kit (Immutopics, Inc., San Clemente, CA, USA). To evaluate the emetic effects in marmosets, evocalcet (50 or 150 μg/kg) or cinacalcet (1500 or 5000 μg/kg) was orally administered (n = 6/drug, dose down titration, n = 12 in total). The observation of emesis was conducted until 4 h after the administration.

[5] = cinacalcet 1 mg/kg oral, 0 h, group mean of 10 rats
[6] = cinacalcet 1 mg/kg oral, 0 h, individual rat
[7] = cinacalcet 1 mg/kg oral, 0.5 h, group mean of 10 rats
[8] = cinacalcet 1 mg/kg oral, 0.5 h, individual rat
[9] = cinacalcet 1 mg/kg oral, 2 h, group mean of 10 rats
[10] = cinacalcet 1 mg/kg oral, 2 h, individual rat
[11] = cinacalcet 1 mg/kg oral, 4 h, group mean of 10 rats
[12] = cinacalcet 1 mg/kg oral, 4 h, individual rat
[13] = cinacalcet 1 mg/kg oral, 6 h, group mean of 10 rats
[14] = cinacalcet 1 mg/kg oral, 6 h, individual rat
[15] = cinacalcet 1 mg/kg oral, 8 h, group mean of 10 rats
[16] = cinacalcet 1 mg/kg oral, 8 h, individual rat
[17] = cinacalcet 1 mg/kg oral, 24 h, group mean of 10 rats
[18] = cinacalcet 1 mg/kg oral, 24 h, individual rat
[19] = cinacalcet 3 mg/kg oral, 0 h, group mean of 10 rats
[20] = cinacalcet 3 mg/kg oral, 0 h, individual rat
[21] = cinacalcet 3 mg/kg oral, 0.5 h, individual rat
[22] = cinacalcet 3 mg/kg oral, 2 h, individual rat
[23] = cinacalcet 3 mg/kg oral, 4 h, individual rat
[24] = cinacalcet 3 mg/kg oral, 6 h, individual rat
[25] = cinacalcet 3 mg/kg oral, 8 h, individual rat
[26] = cinacalcet 3 mg/kg oral, 24 h, individual rat
[27] = single oral dose, vs vehicle group

C[C@@H](NCCCc1cccc(C(F)(F)F)c1)c1cccc2ccccc12 [cinacalcet, Cinacalcet hydrochloride, reference compound]
Serum Ca [1, 5]: 11.5 | Serum Ca [1, 6]: 14.6 and 10.4 and 11.2 and 10.8 and 12.0 and 11.0 and 11.4 | Serum Ca [1, 7]: 10.5 | Serum Ca [1, 8]: 10.4 and 10.8 and 10.0 and 10.6 and 10.2 | Serum Ca [1, 9]: 10.3 | Serum Ca [1, 10]: 10.4 and 10.2 and 10.0 and 10.6 | Serum Ca [1, 11]: 9.9 | Serum Ca [1, 12]: 8.0 and 10.2 and 9.8 and 10.4 and 10.0 | Serum Ca [1, 13]: 10.0 | Serum Ca [1, 14]: 9.6 and 9.4 and 10.0 and 10.4 and 10.2 | Serum Ca [1, 15]: 10.1 | Serum Ca [1, 16]: 10.0 and 10.4 and 10.2 and 9.8 | Serum Ca [1, 17]: 12.1 | Serum Ca [1, 18]: 12.2 and 11.8 and 11.2 and 12.6 and 11.4 and 13.0 and 11.0 and 12.4 | Serum Ca [1, 19]: 11.1 | Serum Ca [1, 20]: 11.2 and 9.4 and 11.4 | Serum Ca ([1]; cinacalcet 3 mg/kg oral, 0.5 h, group mean of 10 rats): 10.6 | Serum Ca [1, 21]: 10.8 and 10.6 and 11.2 and 10.2 | Serum Ca ([1]; cinacalcet 3 mg/kg oral, 2 h, group mean of 10 rats): 9.8 | Serum Ca [1, 22]: 9.8 and 8.6 and 10.0 | Serum Ca ([1]; cinacalcet 3 mg/kg oral, 4 h, group mean of 10 rats): 9.3 | Serum Ca [1, 23]: 9.2 and 8.8 and 9.4 | Serum Ca ([1]; cinacalcet 3 mg/kg oral, 6 h, group mean of 10 rats): 9.3 | Serum Ca [1, 24]: 9.4 and 8.8 and 9.6 | Serum Ca ([1]; cinacalcet 3 mg/kg oral, 8 h, group mean of 10 rats): 9.7 | Serum Ca [1, 25]: 9.6 and 9.2 and 9.8 | Serum Ca ([1]; cinacalcet 3 mg/kg oral, 24 h, group mean of 10 rats): 12.1 | Serum Ca [1, 26]: 12.0 and 11.2 and 11.6 | Serum Ca ([1]; cinacalcet 10 mg/kg oral, 0 h, individual rat): 9.6 and 11.4 and 10.6 and 11.2 | Serum Ca ([1]; cinacalcet 10 mg/kg oral, 0.5 h, individual rat): 10.0 and 10.2 and 10.8 and 9.8 | Serum Ca ([1]; cinacalcet 10 mg/kg oral, 2 h, individual rat): 8.6 and 9.6 and 9.4 and 9.2 | Serum Ca ([1]; cinacalcet 10 mg/kg oral, 4 h, individual rat): 8.2 and 9.2 and 8.8 | Serum Ca ([1]; cinacalcet 10 mg/kg oral, 6 h, individual rat): 8.0 and 8.8 and 8.6 | Serum Ca ([1]; cinacalcet 10 mg/kg oral, 8 h, individual rat): 8.6 and 10.4 and 8.4 and 8.8 | Serum Ca ([1]; cinacalcet 10 mg/kg oral, 24 h, individual rat): 11.4 and 11.6 and 11.0 and 10.2 | Doses that significantly reduced the serum calcium level [1, 27]: ≥ 1 mg/kg | Serum PTH [2, 5]: 109.720 | Serum PTH [2, 6]: 125.722 and 130.447 and 67.586 and 199.824 and 100.664 and 97.298 and 150.924 and 89.996 and 55.272 and 79.471 | Serum PTH [2, 7]: 80.824 | Serum PTH [2, 8]: 82.661 and 77.184 and 76.842 and 101.034 and 110.106 and 55.958 and 55.844 and 88.538 and 77.412 | Serum PTH [2, 9]: 79.608 | Serum PTH [2, 10]: 48.013 and 15.500 and 63.091 and 101.472 and 98.442 and 56.814 and 145.553 and 109.841 and 112.583 and 44.766 | Serum PTH [2, 11]: 140.908 | Serum PTH [2, 12]: 61.596 and 118.199 and 215.679 and 200.323 and 159.521 and 92.828 and 169.313 and 166.494 and 115.974 and 109.149 | Serum PTH [2, 13]: 165.420 | Serum PTH [2, 14]: 193.418 and 170.704 and 168.342 and 210.841 and 173.065 and 135.125 and 169.319 and 98.407 and 166.633 | Serum PTH [2, 15]: 216.453 | Serum PTH [2, 16]: 174.106 and 258.920 and 229.591 and 209.695 and 192.029 and 200.519 and 209.009 and 246.914 and 151.294 and 292.451 | Serum PTH [2, 17]: 137.047 | Serum PTH [2, 18]: 113.627 and 116.500 and 103.304 and 199.622 and 108.780 and 152.854 and 112.730 and 224.397 and 139.120 and 99.534 | Serum PTH [2, 19]: 102.683 | Serum PTH [2, 20]: 56.632 and 140.686 and 84.483 and 109.613 | Serum PTH [2, 21]: 15.500 and 54.018 | Serum PTH [2, 22]: 42.818 and 15.500 and 32.934 | Serum PTH [2, 23]: 141.716 and 112.265 and 135.633 and 62.560 | Serum PTH [2, 24]: 155.316 and 207.503 and 133.171 | Serum PTH [2, 25]: 158.155 and 206.865 and 189.885 and 126.682 | Serum PTH [2, 26]: 109.678 and 94.507 and 141.634 and 226.462 | Doses that significantly reduced the serum PTH level [2, 27]: ≥ 1 mg/kg | Gastric Emptying ([3]; 100 mg/kg, group mean): 20.02% | Gastric Emptying ([3]; 100 mg/kg, individual rats): 7.17% and 20.46% and 31.67% and 44.76% and 1.77% and 30.22% and 22.74% and 1.35% | Gastric Emptying ([3]; cinacalcet 10 mg/kg oral, 30 minutes, group mean, n = 8): 55.17% | Gastric Emptying ([3]; cinacalcet 10 mg/kg oral, 30 minutes, individual rats): 44.96% and 61.79% and 57.42% and 52.23% and 44.34% and 52.86% and 67.60% and 60.12% | Gastric Emptying ([3]; cinacalcet 30 mg/kg oral, 30 minutes, group mean, n = 8): 35.72% | Gastric Emptying ([3]; cinacalcet 30 mg/kg oral, 30 minutes, individual rats): 28.35% and 14.64% and 23.99% and 37.69% and 38.94% and 32.71% and 40.60% and 68.85% | Dose inhibiting gastric emptying relative to the dose required for a significant PTH reduction ([3]; oral): approximately 30 fold | Doses that caused a significant delay in gastric emptying ([3]; oral, vs vehicle group): ≥ 30 mg/kg | Serum PTH levels ([4]; 300 μg/kg, 1 h, individual animals): 206.7 and 42.9 and 113.4 | Serum PTH levels ([4]; 300 μg/kg, 1 h, mean): 121.0 | Serum PTH levels ([4]; 300 μg/kg, 4 h, individual animals): 384.2 and 103.1 and 100.2 | Serum PTH levels ([4]; 300 μg/kg, 4 h, mean): 195.8 | Serum PTH levels ([4]; 300 μg/kg, before administration, individual animals): 327.6 and 84.8 and 116.8 | Serum PTH levels ([4]; 300 μg/kg, before administration, mean): 176.4 | Serum PTH levels ([4]; 500 μg/kg, 1 h, individual animals): 66.0 and 160.9 and 28.9 | Serum PTH levels ([4]; 500 μg/kg, 1 h, mean): 85.3 | Serum PTH levels ([4]; 500 μg/kg, 4 h, individual animals): 370.0 and 348.3 and 172.2 | Serum PTH levels ([4]; 500 μg/kg, 4 h, mean): 296.8 | Serum PTH levels ([4]; 500 μg/kg, before administration, individual animals): 370.0 and 298.9 and 61.2 | Serum PTH levels ([4]; 500 μg/kg, before administration, mean): 243.4 | Minimum effective dose on PTH reduction ([4]; oral): 0.5 mg/kg
